# Patent US20070010671A1, “Novel quinazoline derivatives and methods of treatment related to the use thereof” (priority 2003, published 2007)
# Molecular target: MCH receptor (Homo sapiens, UniProt Q99705)
# Experiment: High throughput functional screening FLIPR/FDSS6000: inhibition of MCH-evoked intracellular Ca2+ changes
# Format: cell-based
# Settings: class by percent of control at 10^-7 M or IC50
# Procedure, shortened: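 In a kinetic calcium-flux format, compounds were tested at various concentrations against 50 nM MCH. Fluo4-loaded cells expressing a constitutively active, non-endogenous receptor were imaged at 488/530 nm for 290 s after agonist addition.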
row,Structure (SMILES),class
1,"CN(C)c1nc(N[C@H]2CC[C@@H](NC(=S)NCc3cccc(Cl)c3)CC2)nc2ccccc12 [compound 305, N-(3-chlorobenzyl)-N′-(cis-4-{[4-(dimethylamino)quinazolin-2-yl]amino}cyclohexyl)thiourea]",1 (Class 1: The value of percent of control at 10^−7 M was less than 40% or the value of IC50 was less than 50 nM.)
2,CCOC(=O)c1cccc(NC(=S)N[C@H]2CC[C@@H](Nc3nc(N(C)C)c4ccccc4n3)CC2)c1 [compound 306],1 (Class 1: The value of percent of control at 10^−7 M was less than 40% or the value of IC50 was less than 50 nM.)
3,CCc1cccc(NC(=S)N[C@H]2CC[C@@H](Nc3nc(N(C)C)c4ccccc4n3)CC2)c1 [compound 307],2 (Class 2: The value of percent of control at 10^−7 M was from 40% to 60% or the value of IC50 was from 50 nM to 200 nM.)
4,"CN(C)c1nc(N[C@H]2CC[C@@H](NC(=S)NCc3cccc(F)c3)CC2)nc2ccccc12 [compound 308, N-(cis-4-{[4-(dimethylamino)quinazolin-2-yl]amino}cyclohexyl)-N′-(3-fluorobenzyl)thiourea]",2 (Class 2: The value of percent of control at 10^−7 M was from 40% to 60% or the value of IC50 was from 50 nM to 200 nM.)
5,"COc1cccc(CNC(=S)N[C@H]2CC[C@@H](Nc3nc(N(C)C)c4ccccc4n3)CC2)c1 [compound 309, N-(cis-4-{[4-(dimethylamino)quinazolin-2-yl]amino}cyclohexyl)-N′-(3-methoxybenzyl)thiourea]",2 (Class 2: The value of percent of control at 10^−7 M was from 40% to 60% or the value of IC50 was from 50 nM to 200 nM.)
6,"Cc1cccc(CNC(=S)N[C@H]2CC[C@@H](Nc3nc(N(C)C)c4ccccc4n3)CC2)c1 [compound 310, N-(cis-4-{[4-(dimethylamino)quinazolin-2-yl]amino}cyclohexyl)-N′-(3-methylbenzyl)thiourea]",2 (Class 2: The value of percent of control at 10^−7 M was from 40% to 60% or the value of IC50 was from 50 nM to 200 nM.)
7,CN(C)c1nc(N[C@H]2CC[C@@H](NC(=S)Nc3ccc(Br)c(Cl)c3)CC2)nc2ccccc12 [compound 311],3 (Class 3: The value of percent of control at 10^−7 M was more than 60% or the value of IC50 was more than 200 nM.)
8,Cc1cc(NC(=S)N[C@H]2CC[C@@H](Nc3nc(N(C)C)c4ccccc4n3)CC2)ccc1Br [compound 312],3 (Class 3: The value of percent of control at 10^−7 M was more than 60% or the value of IC50 was more than 200 nM.)
9,CN(C)c1nc(N[C@H]2CC[C@@H](NC(=S)Nc3ccc(C(=O)O)cc3)CC2)nc2ccccc12 [compound 313],3 (Class 3: The value of percent of control at 10^−7 M was more than 60% or the value of IC50 was more than 200 nM.)
10,"CN(C)c1nc(N[C@H]2CC[C@@H](NC(=S)Nc3ccc(Cl)cc3C(F)(F)F)CC2)nc2ccccc12 [compound 314, N-[4-chloro-2-(trifluoromethyl)phenyl]-N′-(cis-4-{[4-(dimethylamino)quinazolin-2-yl]amino}cyclohexyl)thiourea]",1 (Class 1: The value of percent of control at 10^−7 M was less than 40% or the value of IC50 was less than 50 nM.)
11,CCCCCCCCCCc1ccc(NC(=S)N[C@H]2CC[C@@H](Nc3nc(N(C)C)c4ccccc4n3)CC2)cc1 [compound 315],3 (Class 3: The value of percent of control at 10^−7 M was more than 60% or the value of IC50 was more than 200 nM.)
12,"Cc1cc(F)ccc1NC(=S)N[C@H]1CC[C@@H](Nc2nc(N(C)C)c3ccccc3n2)CC1 [compound 316, N-(cis-4-{[4-(dimethylamino)quinazolin-2-yl]amino}cyclohexyl)-N′-(4-fluoro-2-methylphenyl)thiourea]",1 (Class 1: The value of percent of control at 10^−7 M was less than 40% or the value of IC50 was less than 50 nM.)
13,CN(C)c1nc(N[C@H]2CC[C@@H](NC(=S)Nc3ccc(Oc4ccc([N+](=O)[O-])cc4)cc3)CC2)nc2ccccc12 [compound 317],3 (Class 3: The value of percent of control at 10^−7 M was more than 60% or the value of IC50 was more than 200 nM.)
14,CN(C)c1nc(N[C@H]2CC[C@@H](NC(=S)Nc3ccc(Sc4ccc([N+](=O)[O-])cc4)cc3)CC2)nc2ccccc12 [compound 318],3 (Class 3: The value of percent of control at 10^−7 M was more than 60% or the value of IC50 was more than 200 nM.)
15,CN(C)c1nc(N[C@H]2CC[C@@H](NC(=S)Nc3ccc(S(N)(=O)=O)cc3)CC2)nc2ccccc12 [compound 319],3 (Class 3: The value of percent of control at 10^−7 M was more than 60% or the value of IC50 was more than 200 nM.)
16,"COc1ccc(NC(=S)N[C@H]2CC[C@@H](Nc3nc(N(C)C)c4ccccc4n3)CC2)c(C)c1 [compound 320, N-(cis-4-{[4-(dimethylamino)quinazolin-2-yl]amino}cyclohexyl)-N′-(4-methoxy-2-methylphenyl)thiourea]",1 (Class 1: The value of percent of control at 10^−7 M was less than 40% or the value of IC50 was less than 50 nM.)
17,COc1ccc(C(=O)NC(=S)N[C@H]2CC[C@@H](Nc3nc(N(C)C)c4ccccc4n3)CC2)cc1 [compound 321],3 (Class 3: The value of percent of control at 10^−7 M was more than 60% or the value of IC50 was more than 200 nM.)

row,Structure (SMILES),class
1,Cc1ccc(CCNC(=S)N[C@H]2CC[C@@H](Nc3nc(N(C)C)c4ccccc4n3)CC2)cc1 [compound 322],3 (Class 3: The value of percent of control at 10^−7 M was more than 60% or the value of IC50 was more than 200 nM.)
2,CN(C)c1nc(N[C@H]2CC[C@@H](NC(=S)Nc3ccc(Oc4ccccc4)cc3)CC2)nc2ccccc12 [compound 323],3 (Class 3: The value of percent of control at 10^−7 M was more than 60% or the value of IC50 was more than 200 nM.)
3,"COc1cc(OC)c(NC(=S)N[C@H]2CC[C@@H](Nc3nc(N(C)C)c4ccccc4n3)CC2)cc1Cl [compound 324, N-(5-chloro-2,4-dimethoxyphenyl)-N′-(cis-4-{[4-(dimethylamino)quinazolin-2-yl]amino}cyclohexyl)thiourea]",1 (Class 1: The value of percent of control at 10^−7 M was less than 40% or the value of IC50 was less than 50 nM.)
4,"CN(C)c1nc(N[C@H]2CC[C@@H](NC(=S)Nc3ccc4c(c3)CCC4)CC2)nc2ccccc12 [compound 325, N-(2,3-dihydro-1H-inden-5-yl)-N′-(cis-4-{[4-(dimethylamino)quinazolin-2-yl]amino}cyclohexyl)thiourea]",2 (Class 2: The value of percent of control at 10^−7 M was from 40% to 60% or the value of IC50 was from 50 nM to 200 nM.)
5,CN(C)c1nc(N[C@H]2CC[C@@H](NC(=S)NC(=O)/C=C/c3ccccc3)CC2)nc2ccccc12 [compound 326],3 (Class 3: The value of percent of control at 10^−7 M was more than 60% or the value of IC50 was more than 200 nM.)
6,C/C=C/CNC(=S)N[C@H]1CC[C@@H](Nc2nc(N(C)C)c3ccccc3n2)CC1 [compound 327],3 (Class 3: The value of percent of control at 10^−7 M was more than 60% or the value of IC50 was more than 200 nM.)
7,"CN(C)c1nc(N[C@H]2CC[C@@H](NC(=S)NC3CCCCCC3)CC2)nc2ccccc12 [compound 328, N-cycloheptyl-N′-(cis-4-{[4-(dimethylamino)quinazolin-2-yl]amino}cyclohexyl)thiourea]",2 (Class 2: The value of percent of control at 10^−7 M was from 40% to 60% or the value of IC50 was from 50 nM to 200 nM.)
8,"C[C@@H](NC(=S)N[C@H]1CC[C@@H](Nc2nc(N(C)C)c3ccccc3n2)CC1)c1ccccc1 [compound 329, N-(cis-4-{[4-(dimethylamino)quinazolin-2-yl]amino}cyclohexyl)-N′-[(1R)-1-phenylethyl]thiourea]",1 (Class 1: The value of percent of control at 10^−7 M was less than 40% or the value of IC50 was less than 50 nM.)
9,CCCCOC(=O)c1ccccc1NC(=O)N[C@H]1CC[C@@H](Nc2nc(N(C)C)c3ccccc3n2)CC1 [compound 330],3 (Class 3: The value of percent of control at 10^−7 M was more than 60% or the value of IC50 was more than 200 nM.)
10,COC(=O)c1cc(NC(=O)N[C@H]2CC[C@@H](Nc3nc(N(C)C)c4ccccc4n3)CC2)cc(C(=O)OC)c1 [compound 331],3 (Class 3: The value of percent of control at 10^−7 M was more than 60% or the value of IC50 was more than 200 nM.)
11,CN(C)c1nc(N[C@H]2CC[C@@H](NC(=O)Nc3ccc(OC(F)(F)F)cc3)CC2)nc2ccccc12 [compound 332],3 (Class 3: The value of percent of control at 10^−7 M was more than 60% or the value of IC50 was more than 200 nM.)
12,"Cc1cc(Br)cc(C)c1NC(=O)N[C@H]1CC[C@@H](Nc2nc(N(C)C)c3ccccc3n2)CC1 [compound 333, N-(4-bromo-2,6-dimethylphenyl)-N′-(cis-4-{[4-(dimethylamino)quinazolin-2-yl]amino}cyclohexyl)urea]",1 (Class 1: The value of percent of control at 10^−7 M was less than 40% or the value of IC50 was less than 50 nM.)
13,Cc1cc(Br)ccc1NC(=O)N[C@H]1CC[C@@H](Nc2nc(N(C)C)c3ccccc3n2)CC1 [compound 334],1 (Class 1: The value of percent of control at 10^−7 M was less than 40% or the value of IC50 was less than 50 nM.)
14,CN(C)c1nc(N[C@H]2CC[C@@H](NC(=O)Nc3ccc4c(c3)C(F)(F)OC(F)(F)O4)CC2)nc2ccccc12 [compound 335],3 (Class 3: The value of percent of control at 10^−7 M was more than 60% or the value of IC50 was more than 200 nM.)
15,"CN(C)c1nc(N[C@H]2CC[C@@H](NC(=O)NCCc3cccs3)CC2)nc2ccccc12 [compound 337, N-(cis-4-{[4-(dimethylamino)quinazolin-2-yl]amino}cyclohexyl)-N′-[2-(2-thienyl)ethyl]urea]",2 (Class 2: The value of percent of control at 10^−7 M was from 40% to 60% or the value of IC50 was from 50 nM to 200 nM.)
16,"CN(C)c1nc(N[C@H]2CC[C@@H](NC(=O)Nc3ccc4c(c3)OCCO4)CC2)nc2ccccc12 [compound 338, N-(2,3-dihydro-1,4-benzodioxin-6-yl)-N′-(cis-4-{[4-(dimethylamino)quinazolin-2-yl]amino}cyclohexyl)urea]",1 (Class 1: The value of percent of control at 10^−7 M was less than 40% or the value of IC50 was less than 50 nM.)
